# Experimental data taken from article PMC4060991, “The Human Orphan Nuclear Receptor Tailless (TLX, NR2E1) Is Druggable” (PLoS ONE, 2014).
# Tested on: GAL4 DBD vector
# Assay: Luciferase assay in HeLa cells transfected with empty GAL4 DBD vector (absence of TLX)
# Type: cell-based, human
# Conditions: different concentrations, 16 h
# Method: HeLa cells were maintained in D-MEM High Glucose (Hyclone) supplemented with 10% charcoal:dextran stripped FBS (Hyclone) and 1x Pen/Strep antibiotics (Life Technologies). Transient transfections were carried out in batches on 100,000 cells seeded into 12-well tissue culture plates. The co-transfections were performed using the TransFectin Lipid reagent (Bio-Rad) with approximately 10 ng/well of Gal4 DBD (gift from Phuong Nguyen, Fletterick Laboratory, UCSF) or GAL4-TLX LBD, 10 ng/well of renilla luciferase gene (Promega) for internal control and 200 ng/well of pGL4.35 reporter gene (containing an upstream Gal4 Upstream Activator Sequence and the luciferase gene, Promega). Approximately, 3 h after transfections, cells were treated with compounds of interest at different concentrations, or solvent (DMSO, 0.1%) in DMEM containing no fetal bovine serum or antibiotics. After a 16-h incubation, luciferase activities were assessed using Dual Luciferase assay reagent (Promega). Luciferase activities were calculated by normalizing firefly luciferase to renilla luciferase signal. […] Cells transfected with Gal4 DBD vector served as a control for TLX independent effects.
row,Compound,effect on luciferase activities in absence of TLX
1,"Cc1cc(C(=O)N2CCN(C(c3ccccc3)c3ccccc3)CC2)nn1C [ccrp2, 1-(1,5-dimethylpyrazole-3-carbonyl)-4-(diphenylmethyl)piperazine]",do not affect the luciferase activities
2,"CC(C)c1c(CN(C)C(C)Cc2ccccc2)n(C)n(-c2ccccc2)c1=O (stereo not drawn) [ccrp1, Famprofazone]",do not affect the luciferase activities
3,"CC(=O)[C@H]1CC[C@H]2[C@@H]3C=CC4=CC(=O)CC[C@@]4(C)[C@@H]3CC[C@]12C [ccrp3, Dydrogesterone]",do not affect the luciferase activities
